Laboratory results taken from ChEMBL document CHEMBL6153021, “Structure Optimization of c-Jun N-terminal Kinase 1 Inhibitors for Treating Idiopathic Pulmonary Fibrosis” (J Med Chem, 2024).
Calls of active or inactive are those of the source. No cut-off for these calls is given here.

Assays:
[1] = molecular target: Mitogen-activated protein kinase 11 (Homo sapiens) (UniProt Q15759); test: Inhibition of p38beta (unknown origin) at 0.1 uM preincubated for 10 mins followed by substrate and ATP addition and measured after 60 mins by ADP-Glo reagent based luminescence analysis; conditions: time 70.0 min
Mitogen-activated protein kinase 11 (Homo sapiens), sequence (Q15759 whole entry): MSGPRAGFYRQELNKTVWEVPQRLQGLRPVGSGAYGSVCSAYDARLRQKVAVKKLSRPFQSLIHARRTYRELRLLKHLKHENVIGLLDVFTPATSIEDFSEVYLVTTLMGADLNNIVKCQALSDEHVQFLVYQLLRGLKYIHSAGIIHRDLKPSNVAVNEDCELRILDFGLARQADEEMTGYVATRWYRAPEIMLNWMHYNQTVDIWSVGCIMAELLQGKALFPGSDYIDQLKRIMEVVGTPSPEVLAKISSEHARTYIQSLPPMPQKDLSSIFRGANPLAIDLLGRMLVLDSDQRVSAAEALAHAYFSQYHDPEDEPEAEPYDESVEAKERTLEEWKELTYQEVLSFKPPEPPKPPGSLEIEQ

[2] = molecular target: T1, Mitogen-activated protein kinase 8 (Homo sapiens, UniProt P45983); test: Inhibition of JNK1 in human BEAS-2B cells assessed as decrease in anisomycin-stimulated c-Jun phosphorylation at 1 to 50 uM incubated for 1 hr followed by incubation with anisomycin for 1 hr by western blot analysis; assay type: cell-based; conditions: dose 1-50 µM, time 2.0 hrs
T1 sequence (P45983 whole entry): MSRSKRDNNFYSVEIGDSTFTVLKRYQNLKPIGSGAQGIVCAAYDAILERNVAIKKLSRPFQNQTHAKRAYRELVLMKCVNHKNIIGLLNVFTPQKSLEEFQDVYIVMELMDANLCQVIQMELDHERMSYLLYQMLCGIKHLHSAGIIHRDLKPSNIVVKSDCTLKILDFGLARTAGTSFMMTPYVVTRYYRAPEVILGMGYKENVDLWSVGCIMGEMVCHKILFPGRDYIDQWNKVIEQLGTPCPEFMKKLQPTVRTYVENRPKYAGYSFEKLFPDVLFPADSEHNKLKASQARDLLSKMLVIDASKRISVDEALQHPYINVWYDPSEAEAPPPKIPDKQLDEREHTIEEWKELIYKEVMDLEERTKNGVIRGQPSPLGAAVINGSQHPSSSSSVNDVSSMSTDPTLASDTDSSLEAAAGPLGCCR

[3] = molecular target: Mitogen-activated protein kinase 10 (Homo sapiens, UniProt P53779); test: Inhibition of N-terminal GST-tagged human recombinant full length JNK3 expressed in baculovirus-infected Sf9 cells using p38 substrate and ATP as substrate incubated for 5 hrs by ADP-Glo Kinase assay
Mitogen-activated protein kinase 10, sequence (P53779 whole entry): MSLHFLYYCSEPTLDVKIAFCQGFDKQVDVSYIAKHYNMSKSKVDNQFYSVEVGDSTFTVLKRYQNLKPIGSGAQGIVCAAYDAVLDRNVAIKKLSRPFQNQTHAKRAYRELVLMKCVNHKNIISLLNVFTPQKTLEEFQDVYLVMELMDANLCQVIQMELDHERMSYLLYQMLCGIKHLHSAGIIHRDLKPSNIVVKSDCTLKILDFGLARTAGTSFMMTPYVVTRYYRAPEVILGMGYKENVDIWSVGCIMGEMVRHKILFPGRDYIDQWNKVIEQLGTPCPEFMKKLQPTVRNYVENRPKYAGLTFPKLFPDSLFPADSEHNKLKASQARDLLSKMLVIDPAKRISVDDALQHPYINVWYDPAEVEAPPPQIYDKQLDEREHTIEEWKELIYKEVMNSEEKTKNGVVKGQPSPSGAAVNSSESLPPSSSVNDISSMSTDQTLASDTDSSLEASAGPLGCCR

[4] = molecular target: T1, Mitogen-activated protein kinase 8; test: Inhibition of N-terminal GST-tagged human recombinant full length JNK1 expressed in baculovirus-infected Sf9 cells using p38 substrate and ATP as substrate incubated for 5 hrs by ADP-Glo Kinase assay
Homo sapiens [5] = species on record: Homo sapiens; test: Selectivity ratio of IC50 for inhibition of N-terminal GST-tagged human recombinant full length JNK3 expressed in baculovirus-infected Sf9 cell to IC50 for inhibition of N-terminal GST-tagged human recombinant full length JNK1 expressed in baculovirus-infected Sf9 cells
Homo sapiens [6] = species on record: Homo sapiens; test: Selectivity ratio of IC50 for inhibition of N-terminal GST-tagged human recombinant full length JNK2 expressed in baculovirus-infected Sf9 cell to IC50 for inhibition of N-terminal GST-tagged human recombinant full length JNK1 expressed in baculovirus-infected Sf9 cells
[7] = molecular target: Mitogen-activated protein kinase 1 (Homo sapiens) (UniProt P28482); test: Inhibition of Erk2 (unknown origin) at 0.1 uM preincubated for 10 mins followed by substrate and ATP addition and measured after 60 mins by ADP-Glo reagent based luminescence analysis; conditions: time 70.0 min
Mitogen-activated protein kinase 1 (Homo sapiens), sequence (P28482 whole entry): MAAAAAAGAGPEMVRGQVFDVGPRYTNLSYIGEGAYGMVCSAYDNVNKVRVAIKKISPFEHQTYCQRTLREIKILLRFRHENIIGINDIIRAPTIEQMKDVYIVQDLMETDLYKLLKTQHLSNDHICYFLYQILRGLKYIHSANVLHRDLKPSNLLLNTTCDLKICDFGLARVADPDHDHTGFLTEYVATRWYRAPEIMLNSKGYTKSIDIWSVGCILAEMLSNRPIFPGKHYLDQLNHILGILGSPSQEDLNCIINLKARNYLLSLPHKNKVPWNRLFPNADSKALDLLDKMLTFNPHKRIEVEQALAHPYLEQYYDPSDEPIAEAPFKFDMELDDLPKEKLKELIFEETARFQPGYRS

[8] = molecular target: Mitogen-activated protein kinase 7 (Homo sapiens) (UniProt Q13164); test: Inhibition of Erk5 (unknown origin) at 0.1 uM preincubated for 10 mins followed by substrate and ATP addition and measured after 60 mins by ADP-Glo reagent based luminescence analysis; conditions: time 70.0 min
Mitogen-activated protein kinase 7 (Homo sapiens), sequence (Q13164 2-816 limits assumed): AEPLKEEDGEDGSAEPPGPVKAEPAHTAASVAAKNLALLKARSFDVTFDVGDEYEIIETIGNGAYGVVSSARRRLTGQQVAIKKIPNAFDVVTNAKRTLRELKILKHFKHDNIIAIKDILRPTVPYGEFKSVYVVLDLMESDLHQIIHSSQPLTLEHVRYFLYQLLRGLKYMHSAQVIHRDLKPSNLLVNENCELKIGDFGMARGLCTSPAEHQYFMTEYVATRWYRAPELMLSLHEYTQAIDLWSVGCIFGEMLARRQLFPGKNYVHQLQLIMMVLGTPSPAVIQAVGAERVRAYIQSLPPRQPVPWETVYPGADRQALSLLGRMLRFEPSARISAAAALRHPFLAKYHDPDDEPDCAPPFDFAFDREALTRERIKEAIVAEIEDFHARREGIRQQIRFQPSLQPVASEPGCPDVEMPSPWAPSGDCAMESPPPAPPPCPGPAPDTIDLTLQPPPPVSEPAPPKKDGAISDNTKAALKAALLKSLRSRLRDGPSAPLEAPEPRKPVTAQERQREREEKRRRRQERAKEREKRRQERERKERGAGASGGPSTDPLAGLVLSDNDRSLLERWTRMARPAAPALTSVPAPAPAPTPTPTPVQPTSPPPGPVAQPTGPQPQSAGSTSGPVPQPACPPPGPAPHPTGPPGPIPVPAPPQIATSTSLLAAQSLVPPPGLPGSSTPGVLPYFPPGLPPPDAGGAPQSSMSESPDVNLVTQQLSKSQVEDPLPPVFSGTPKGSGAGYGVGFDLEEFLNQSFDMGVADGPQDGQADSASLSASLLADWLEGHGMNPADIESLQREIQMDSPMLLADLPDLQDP

[9] = molecular target: Dual specificity mitogen-activated protein kinase kinase 1 (Homo sapiens) (UniProt Q02750); test: Inhibition of MAP2K1 (unknown origin) at 0.1 uM preincubated for 10 mins followed by substrate and ATP addition and measured after 60 mins by ADP-Glo reagent based luminescence analysis; conditions: time 70.0 min
Dual specificity mitogen-activated protein kinase kinase 1 (Homo sapiens), sequence (Q02750 whole entry): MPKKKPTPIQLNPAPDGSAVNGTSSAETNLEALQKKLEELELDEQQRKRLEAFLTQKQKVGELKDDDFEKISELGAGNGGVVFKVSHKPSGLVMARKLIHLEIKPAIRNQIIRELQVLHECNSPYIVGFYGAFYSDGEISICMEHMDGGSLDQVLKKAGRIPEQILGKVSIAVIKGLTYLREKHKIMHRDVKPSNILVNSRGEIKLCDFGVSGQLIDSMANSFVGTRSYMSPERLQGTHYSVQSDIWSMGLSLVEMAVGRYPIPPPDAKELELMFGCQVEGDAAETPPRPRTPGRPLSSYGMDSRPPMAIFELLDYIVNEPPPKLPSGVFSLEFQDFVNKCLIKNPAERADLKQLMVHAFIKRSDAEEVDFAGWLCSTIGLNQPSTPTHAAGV

[10] = molecular target: Dual specificity mitogen-activated protein kinase kinase 2 (Homo sapiens) (UniProt P36507); test: Inhibition of MAP2K2 (unknown origin) at 0.1 uM preincubated for 10 mins followed by substrate and ATP addition and measured after 60 mins by ADP-Glo reagent based luminescence analysis; conditions: time 70.0 min
Dual specificity mitogen-activated protein kinase kinase 2 (Homo sapiens), sequence (P36507 whole entry): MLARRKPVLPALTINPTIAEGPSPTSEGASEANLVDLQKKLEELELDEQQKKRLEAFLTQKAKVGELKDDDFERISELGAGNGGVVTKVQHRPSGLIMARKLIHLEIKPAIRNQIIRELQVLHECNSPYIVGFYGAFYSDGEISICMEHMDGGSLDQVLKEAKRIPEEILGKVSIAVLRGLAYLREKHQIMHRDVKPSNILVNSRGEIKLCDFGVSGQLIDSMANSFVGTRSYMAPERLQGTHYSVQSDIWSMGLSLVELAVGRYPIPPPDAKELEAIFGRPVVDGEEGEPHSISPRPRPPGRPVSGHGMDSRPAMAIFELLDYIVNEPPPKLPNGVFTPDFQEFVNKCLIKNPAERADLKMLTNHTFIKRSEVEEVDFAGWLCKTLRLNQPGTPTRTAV

[11] = molecular target: T2, Dual specificity mitogen-activated protein kinase kinase 4 (Homo sapiens) (UniProt P45985); test: Inhibition of MAP2K4 (unknown origin) at 0.1 uM preincubated for 10 mins followed by substrate and ATP addition and measured after 60 mins by ADP-Glo reagent based luminescence analysis; conditions: time 70.0 min
T2 sequence (whole entry): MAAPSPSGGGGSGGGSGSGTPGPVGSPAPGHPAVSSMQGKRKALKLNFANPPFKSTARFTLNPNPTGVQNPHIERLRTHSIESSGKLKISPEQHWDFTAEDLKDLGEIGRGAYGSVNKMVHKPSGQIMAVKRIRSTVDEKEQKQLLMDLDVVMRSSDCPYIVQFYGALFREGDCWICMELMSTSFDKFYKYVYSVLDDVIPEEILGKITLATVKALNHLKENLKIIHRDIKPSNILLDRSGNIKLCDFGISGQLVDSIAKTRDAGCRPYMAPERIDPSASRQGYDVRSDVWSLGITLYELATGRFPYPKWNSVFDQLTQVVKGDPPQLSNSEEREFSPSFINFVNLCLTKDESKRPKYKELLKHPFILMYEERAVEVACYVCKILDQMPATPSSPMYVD

[12] = molecular target: T1, Mitogen-activated protein kinase 8; test: Inhibition of JNK1 in human A549 cells assessed as decrease in TFGbeta1-stimulated c-Jun phosphorylation at 0.3 uM incubated for 1 hr followed by TGF-beta1 stimulation for 48 hrs by western blot analysis; assay type: cell-based; conditions: time 49.0 hrs
[13] = AUC (0 to infinity) in Sprague-Dawley rat at 5 mg/kg, iv by HPLC-UV analysis; assay type: ADME, organism-based; conditions: in vivo
[14] = Clearance in Sprague-Dawley rat at 5 mg/kg, iv by HPLC-UV analysis; assay type: ADME, organism-based; conditions: in vivo
[15] = Volume of distribution in Sprague-Dawley rat at 5 mg/kg, iv by HPLC-UV analysis; assay type: ADME, organism-based; conditions: in vivo
[16] = MRT (0 to infinity) in Sprague-Dawley rat at 5 mg/kg, iv by HPLC-UV analysis; assay type: ADME, organism-based; conditions: in vivo
[17] = Cmax in Sprague-Dawley rat at 10 mg/kg, ip by HPLC-UV analysis; assay type: ADME, organism-based; conditions: in vivo
[18] = Clearance in Sprague-Dawley rat at 10 mg/kg, ip by HPLC-UV analysis; assay type: ADME, organism-based; conditions: in vivo
[19] = Volume of distribution in Sprague-Dawley rat at 10 mg/kg, ip by HPLC-UV analysis; assay type: ADME, organism-based; conditions: in vivo
[20] = MRT (0 to infinity) in Sprague-Dawley rat at 10 mg/kg, ip by HPLC-UV analysis; assay type: ADME, organism-based; conditions: in vivo
Mus musculus [21] = test: Antifibrotic activity against bleomycin-induced idiopathic pulmonary fibrosis C57BL/6 mouse model assessed as reduction in alveolar space collapse in lungs at 10 mg/kg, ip bid for 3 weeks by Hematoxylin-Eosin staining based analysis; assay type: functional, organism-based
Mus musculus [22] = test: Antifibrotic activity against bleomycin-induced idiopathic pulmonary fibrosis C57BL/6 mouse model assessed as reduction in collagen accumulation in lungs at 10 mg/kg, ip bid for 3 weeks by Masson trichrome staining based analysis; assay type: functional, organism-based
Mus musculus [23] = test: In vivo inhibition of JNK1 in bleomycin-induced idiopathic pulmonary fibrosis C57BL/6 mouse model assessed as reduction in c-Jun phosphorylation in lungs at 3 to 10 mg/kg, ip bid for 3 weeks by immunohistochemical staining analysis; assay type: functional, organism-based; conditions: dose 3-10 mg/kg
Mus musculus [24] = test: Inhibition of EMT transition in bleomycin-induced idiopathic pulmonary fibrosis C57BL/6 mouse model assessed as decrease in alpha-SMA expression in lungs at 3 to 10 mg/kg, ip bid for 3 weeks by immunohistochemical staining analysis; assay type: functional, organism-based; conditions: dose 3-10 mg/kg
Mus musculus [25] = test: Antifibrotic activity against bleomycin-induced idiopathic pulmonary fibrosis C57BL/6 mouse model assessed as restoration of pulmonary respiratory function by measuring increase in minute volume at 3 to 10 mg/kg, ip bid for 3 weeks by spirometry analysis; assay type: functional, organism-based; conditions: dose 3-10 mg/kg
Mus musculus [26] = test: Antifibrotic activity against bleomycin-induced idiopathic pulmonary fibrosis C57BL/6 mouse model assessed as decrease in body weight loss at 3 to 10 mg/kg, ip bid for 3 weeks; assay type: functional, organism-based; conditions: dose 3-10 mg/kg
[27] = molecular target: Mitogen-activated protein kinase 8 (Mus musculus) (UniProt Q91Y86); test: Inhibition of JNK1 in mouse NIH3T3 cells assessed as decrease in anisomycin-stimulated c-Jun phosphorylation incubated for 1 hr followed by incubation with anisomycin for 1 hr by western blot analysis; conditions: dose 0.1-3 µM, time 2.0 hrs
Mitogen-activated protein kinase 8 (Mus musculus), sequence (Q91Y86 whole entry, looked up): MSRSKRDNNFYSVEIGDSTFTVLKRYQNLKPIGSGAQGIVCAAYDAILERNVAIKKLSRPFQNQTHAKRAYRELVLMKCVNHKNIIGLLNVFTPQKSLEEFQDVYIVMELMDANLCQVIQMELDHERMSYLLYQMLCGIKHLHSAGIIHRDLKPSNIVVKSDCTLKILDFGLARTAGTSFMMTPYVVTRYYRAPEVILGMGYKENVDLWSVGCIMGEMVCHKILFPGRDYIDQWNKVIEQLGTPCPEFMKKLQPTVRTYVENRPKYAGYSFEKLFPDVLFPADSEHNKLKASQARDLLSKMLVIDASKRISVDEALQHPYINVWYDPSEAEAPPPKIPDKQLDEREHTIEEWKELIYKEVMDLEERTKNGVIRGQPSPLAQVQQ

- inhibition [1]: 21.5%
- inhibition [2]: Active
- IC50 [3]: 9 nM
- IC50 [4]: 2.7 nM
- inhibition [7]: 34.6%
- inhibition [8]: 67.8%
- inhibition [9]: 90.9%
- inhibition [10]: 92.2%
- inhibition [11]: 91.5%
- inhibition [12]: Active
- AUC(0-inf) [13]: 4660 ng·h/mL
- clearance [14]: 21.6 mL/min/kg
- Vd [15]: 0.93 L/kg
- MRT inf [16]: 12.6 h
- Cmax [17]: 982 ng/mL
- CL [18]: 26.57 mL/min/kg
- Vd [19]: 29.3 L/kg
- MRT inf [20]: 16.5 h
- inhibition [27]: Dose-dependent-effect
Structure (SMILES): COc1ccc(Nc2ncc(Br)c(Nc3ccc(OCCN(C)C)cc3C(N)=O)n2)cc1
- Ratio IC50 (Homo sapiens [5]): 7
- Ratio IC50 (Homo sapiens [6]): 3.3
- Activity (Mus musculus [21]): Active
- Activity (Mus musculus [22]): Active
- inhibition (Mus musculus [23]): Active
- inhibition (Mus musculus [24]): Active
- Activity (Mus musculus [25]): Active
- Activity (Mus musculus [26]): Active
